Literature values as cited in patent US12052992B2, “Insecticidal composition” (CLARKE MOSQUITO CONTROL PRODUCTS, INC., priority 2017, dated 2024).

Details: comparison value for water

SMILES: O [water]
- evaporation rate λ: 62.40 μm^2 s^−1° C.^−1
